PubChem BioAssay (NCI)
Where “and” joins values, the source holds several entries; their conditions need not be identical. Equal entries are not always repeated.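 How tested: cells in 96-well plates exposed to compound for 48 hours at five concentrations. Abbreviation: GI50, concentration required for 50% inhibition of growth. At the TGI there is no net growth.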

Legend:
Assay in all cases: NCI tumour cell line growth inhibition, 48 h
A498 renal = test system: A498 renal
ACHN renal = test system: ACHN renal
DU-145 prostate = test system: DU-145 prostate
HCT-116 colon = test system: HCT-116 colon
HL-60(TB) leukemia = test system: HL-60(TB) leukemia
HOP-62 NSCLC = test system: HOP-62 NSCLC
HS 578T breast = test system: HS 578T breast
IGROV1 ovarian = test system: IGROV1 ovarian
KM12 colon = test system: KM12 colon
MDA-MB-435 = test system: MDA-MB-435
OVCAR-3 ovarian = test system: OVCAR-3 ovarian
OVCAR-8 ovarian = test system: OVCAR-8 ovarian
SF-295 CNS = test system: SF-295 CNS
SK-MEL-28 melanoma = test system: SK-MEL-28 melanoma
UO-31 renal = test system: UO-31 renal
SNB-75 CNS = test system: SNB-75 CNS
SR leukemia = test system: SR leukemia

SMILES	TGI (A498 renal)	TGI (ACHN renal)	TGI (DU-145 prostate)	TGI (HCT-116 colon)	TGI (HL-60(TB) leukemia)	TGI (HOP-62 NSCLC)	TGI (HS 578T breast)	TGI (IGROV1 ovarian)	TGI (KM12 colon)	TGI (MDA-MB-435)	TGI (OVCAR-3 ovarian)	TGI (OVCAR-8 ovarian)	TGI (SF-295 CNS)	TGI (SK-MEL-28 melanoma)	TGI (UO-31 renal)	TGI (SNB-75 CNS)	GI50 (HCT-116 colon)	GI50 (HOP-62 NSCLC)	GI50 (MDA-MB-435)	TGI (SR leukemia)
Cc1[nH]c2c(C)ccc(C)c2c1CC(=O)O	> 100 µM	> 100 µM	> 100 µM	> 100 µM	23.7 µM	> 100 µM	60.4 µM	> 100 µM	> 100 µM	> 100 µM	> 100 µM	> 100 µM	> 100 µM	> 100 µM	> 100 µM					
NC(=S)SCCC(=O)O	> 100 µM	> 100 µM	> 100 µM	> 100 µM	> 100 µM	> 100 µM	> 100 µM	> 100 µM	> 100 µM	> 100 µM	> 100 µM	> 100 µM	> 100 µM	> 100 µM	> 100 µM	> 100 µM				
CC1CC(N)=Nc2ccccc2N1Cc1ccccc1 (stereo not drawn)	23.3 µM	28.5 µM	32.7 µM	> 100 µM	19.5 µM	27.2 µM	23.8 µM	19.9 µM	28.2 µM	26.8 µM	24.9 µM	27.8 µM	27.8 µM	23.8 µM	42.3 µM	20.8 µM				
O=[N+]([O-])C(/C(Cl)=C(/Cl)N1CCCCC1)=C1\NCCO1	> 100 µM	> 100 µM	> 100 µM	> 100 µM		> 100 µM	> 100 µM		> 100 µM	> 100 µM	> 100 µM	> 100 µM	> 100 µM	> 100 µM	> 100 µM	> 100 µM				
CCC1(O)CC(OC2CC(N(C)C)C(OC3CC(O)C(OC4OC(C)C(=O)C=C4N)C(C)O3)C(C)O2)c2c(O)c3c(c(O)c2C1C(=O)OC)C(=O)c1cccc(O)c1C3=O (stereo not drawn)	0.0129 µM		0.0461 µM	> 100 µM	0.108 µM	0.855 µM	0.366 µM and 1.47 µM		0.2 µM	0.107 µM	0.15 µM	0.261 µM		0.17 µM and 0.0205 µM		0.223 µM				
CC(=O)O[C@H]1CC[C@H]2[C@@H]3CCc4cc(O)c(I)cc4[C@H]3CC[C@]12C		28.1 µM	28.7 µM	29.9 µM	80.9 µM	24 µM	31.9 µM	30.5 µM	28.3 µM	26.6 µM	31.4 µM	37.9 µM	28.6 µM	29.6 µM	27.1 µM	26.2 µM	16 µM	11 µM	13.1 µM	> 100 µM
COC(=O)/C=C\c1ccc2c(c1)CC1(C2)Cc2ccc(/C=C/C(=O)OC)cc2C1 (stereo not drawn)		> 31.6 µM	> 100 µM	> 31.6 µM	> 31.6 µM	25.3 µM	> 31.6 µM	> 31.6 µM	> 31.6 µM	> 31.6 µM	> 31.6 µM	> 31.6 µM	> 31.6 µM	> 100 µM	> 31.6 µM	> 100 µM				> 31.6 µM
